Assay [1] deals with T1, human, citrated, platelet-rich plasma (Homo sapiens, UniProt P05106+P08514).
T1 construct: aggregating human, citrated, platelet-rich plasma; endogenous in cells; host or cells: human platelets in citrated platelet-rich plasma
As to the kind of experiment: test (a): inhibition of ADP stimulated platelet aggregation in human, citrated, platelet-rich plasma. The assay is classed as cell-based. The note with it: read-out: pA2 (converted). The source says: (i) aggregating human, citrated, platelet-rich plasma by addition of adenosine diphosphate (ADP) so as to generate a dose-response curve;
(ii) generating a dose-response curve for ADP stimulated platelet aggregation in the presence of increasing amounts of a test compound (generally in the range 10^-5 M to 10^-10 M); and
(iii) calculating a pA2 value indicating potency of platelet aggregation inhibition for the test compound, averaged over several concentrations, from the calculated 50% response value for ADP aggregation in the presence and absence of the test compound.

Assay [2] addresses T2, purified human platelet fibrinogen receptor (GPIIb/IIIa) (Homo sapiens, UniProt P05106+P08514).
T2 construct: Glycoprotein IIb/IIIa is isolated from human platelet lysates; from tissue
As to the kind of experiment: test (b): GPIIb/IIIa ELISA, inhibition of biotinylated fibrinogen binding. As to conditions: 50% inhibition of biotinylated fibrinogen binding to GPIIb/IIIa. As to the method: (i) Preparation of human platelet lysates
Platelet rich plasma (prp) is harvested by centrifugation (1000 rpm, 15 minutes) of whole blood anticoagulated with acid citrate dextrose (trisodium citrate 85 mM, citric acid 70 mM, d-glucose 110 mM) 1 part to 6 parts blood. Prostacyclin (PGI2, 1 μM) is added to the prp before centrifugation (2400 rpm, 15 min) and the resulting pellet is resuspended in modified Tyrodes' solution (NaCl 130 mM, […], NaHCO3, 12 mM, NaH2 PO4 0.5 mM, MgCl2 1 mM, CaCl2 20 mM, Glucose 12 mM, HEPES 5 mM) containing bovine serum albumin 3.5 g/L, PGI2 1 μM and hirudin 0.5 U/ml. The platelet suspension is centrifuged (2400 rpm, 15 minutes) and the resultant pellet resuspended in 500 μl of lysis buffer (octyl glucoside 50 mM, HEPES 10 mM, NaCl 150 mM, CaCl2 1 mM, MgCl2 1 mM, PMSF 1 mM, NEM 10 mM, leupeptin 0.1 mM), agitated at 4° C. for 15 minutes then centrifuged at 24000 rpm, 15 minutes. The supernatant is stored at 4° C. and the pellet re-suspended in 500 μl of lysis buffer. […]
96 well microtitre plates are coated with 100 μl purified human platelet fibrinogen receptor (GPIIb/IIIa) diluted in coating buffer (Tris-HCl 20 mM, NaCl 150 mM, CaCl2 1 mM, pH 7.4) and left overnight at 4° C. […] Colour is allowed to develop for 10-15 minutes before optical densities are read at 650 nm. […]

Structures can show the parent of a compound that is named as a salt.

T2 sequence (P08514 32-887 limits assumed): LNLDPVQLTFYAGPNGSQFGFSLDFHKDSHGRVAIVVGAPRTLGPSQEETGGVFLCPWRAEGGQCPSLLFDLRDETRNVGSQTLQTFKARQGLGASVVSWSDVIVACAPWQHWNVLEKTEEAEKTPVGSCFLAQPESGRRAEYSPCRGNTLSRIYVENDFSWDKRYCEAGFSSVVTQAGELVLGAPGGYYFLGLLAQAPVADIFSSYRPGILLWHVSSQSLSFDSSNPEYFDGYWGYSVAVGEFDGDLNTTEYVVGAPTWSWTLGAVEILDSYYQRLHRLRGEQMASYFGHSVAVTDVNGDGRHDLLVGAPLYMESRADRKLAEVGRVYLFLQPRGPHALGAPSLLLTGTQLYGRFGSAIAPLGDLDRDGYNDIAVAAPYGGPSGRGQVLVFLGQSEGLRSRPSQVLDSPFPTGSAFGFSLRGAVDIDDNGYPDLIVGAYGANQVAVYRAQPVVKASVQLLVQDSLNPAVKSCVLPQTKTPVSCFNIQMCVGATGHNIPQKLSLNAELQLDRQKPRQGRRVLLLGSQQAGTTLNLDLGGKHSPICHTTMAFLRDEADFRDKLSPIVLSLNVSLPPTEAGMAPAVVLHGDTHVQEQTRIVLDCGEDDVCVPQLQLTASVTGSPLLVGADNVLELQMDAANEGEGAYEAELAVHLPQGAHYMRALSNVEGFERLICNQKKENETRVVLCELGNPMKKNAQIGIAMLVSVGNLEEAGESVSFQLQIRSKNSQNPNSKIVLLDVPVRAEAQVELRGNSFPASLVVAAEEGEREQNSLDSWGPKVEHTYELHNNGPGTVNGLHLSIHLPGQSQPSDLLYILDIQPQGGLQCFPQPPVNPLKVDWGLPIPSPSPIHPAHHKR
T2 sequence (P08514 891-1039 limits assumed): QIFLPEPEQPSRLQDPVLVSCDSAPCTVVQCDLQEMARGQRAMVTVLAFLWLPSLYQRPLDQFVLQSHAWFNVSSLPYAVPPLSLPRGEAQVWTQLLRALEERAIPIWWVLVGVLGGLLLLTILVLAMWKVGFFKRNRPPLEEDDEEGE
T2 sequence (P05106 27-788): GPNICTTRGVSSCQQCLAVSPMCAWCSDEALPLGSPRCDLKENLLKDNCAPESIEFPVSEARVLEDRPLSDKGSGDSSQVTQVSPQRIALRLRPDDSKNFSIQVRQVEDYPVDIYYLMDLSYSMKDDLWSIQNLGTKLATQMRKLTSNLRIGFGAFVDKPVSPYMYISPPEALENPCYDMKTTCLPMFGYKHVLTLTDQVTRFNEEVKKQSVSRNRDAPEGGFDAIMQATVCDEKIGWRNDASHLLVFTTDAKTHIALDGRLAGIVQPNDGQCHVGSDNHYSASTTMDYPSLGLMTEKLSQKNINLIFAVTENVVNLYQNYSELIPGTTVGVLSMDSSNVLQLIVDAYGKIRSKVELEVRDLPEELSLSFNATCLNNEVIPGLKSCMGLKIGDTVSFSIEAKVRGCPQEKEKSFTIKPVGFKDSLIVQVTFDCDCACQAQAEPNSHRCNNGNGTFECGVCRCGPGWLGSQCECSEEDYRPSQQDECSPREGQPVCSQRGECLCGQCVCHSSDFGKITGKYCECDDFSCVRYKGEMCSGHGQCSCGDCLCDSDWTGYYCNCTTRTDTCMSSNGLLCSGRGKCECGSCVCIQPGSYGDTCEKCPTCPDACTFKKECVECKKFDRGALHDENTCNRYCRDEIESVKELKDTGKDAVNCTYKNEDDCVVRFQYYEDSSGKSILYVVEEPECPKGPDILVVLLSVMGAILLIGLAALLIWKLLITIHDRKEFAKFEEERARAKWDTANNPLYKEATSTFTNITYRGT
T1 sequence (P08514 32-887 limits assumed): as the sequence (P08514 32-887 limits assumed) above
T1 sequence (P08514 891-1039 limits assumed): as the sequence (P08514 891-1039 limits assumed) above
T1 sequence (P05106 27-788): as the sequence (P05106 27-788) above

Turning to `COC(=O)COc1ccc(C(=O)NC(=O)Nc2ccc(C(=N)N)cc2)cc1` [Example 1, Methyl 4-[4-(4-amidinophenyl)allophoyl]phenoxyacetate, acetate salt], the Kb in assay [1] was 31.6 nM. The compound also gave an IC50 in assay [2] of 126 nM.

As for `N=C(N)c1ccc(NC(=O)NC(=O)c2ccc(OCC(=O)O)cc2)cc1` [Example 2, 4-[4-(4-Amidinophenyl)allophanoyl]phenoxyacetic acid], the Kb in assay [1] was 25.1 nM. Moreover, the IC50 in assay [2] is 25.1 nM.

For the origin of these results see patent US5494922A, “Allophanic acid derivatives” (Zeneca Limited, priority 1993, dated 1996).
